In patent US9820954B2, “Quantitative peri-orbital application of ophthalmology drugs” (JENIVISION INC., priority 2015, dated 2017):
“And” between values parts separate entries of the source, which are not always exact repeats. Equal values may be shown once. One block for each compound: values may come before it.

Legend:
[1] = tested on: patient; experiment: Periorbital application in a patient with bacterial conjunctivitis (patient example); assay type: in vivo, human; details: Example VIII: 0.3% w/w cream (Composition 3, Table II), periorbital skin of the right eye daily
Source text: A pediatric patient suffers from bacterial conjunctivitis in their right eye.

[2] = tested on: Cynomolgus monkeys; experiment: Intraocular pressure after periorbital roller-ball application in Cynomolgus monkeys; assay type: in vivo, Cynomolgus monkey; parameters: Ocular Pressure (Left Eye), Mean: unit not given beside the values; details: for Ocular Pressure (Left Eye), Mean: treated left eye, n=6
Method: Day 1; 8 Cynomolgus monkeys, which are the favored animal model for glaucoma studies, were assigned to the study. Intraocular pressure was measured in both eyes. The 6 animals with the highest intraocular pressure were selected for study.
(§1) Day 2 Intraocular pressure was measured in both eyes of the 6 selected animals. Before dosing the monkeys, the delivery of vehicle (Polyethylene glycol 400) and the compound (3-[(3′-fluoro-4-fluorobiphenyl-3-carbonyl) amino] phenoxyacetic acid isopropyl ester from the roller-ball applicator bottle was checked by rolling it along a solid surface (e.g. glass or plastic) until the liquid flowed freely from the roller-ball. The formulation of (3-[(3′-fluoro-4-fluorobiphenyl-3-carbonyl) amino] phenoxyacetic acid isopropyl ester was applied immediately afterwards by rolling the roller-ball slowly around the skin surrounding the left eye socket of each monkey. The roller-ball was rolled around this area 5 times for each monkey. The same drug application procedure was performed for the vehicle (Polyethylene glycol 400) to the right eye socket of each monkey. Intraocular pressure was measured in both eyes at 3 hours post-drug and vehicle application and again at 5 hours post-drug and vehicle application. The conjunctivae of both eyes were checked for redness at the end of the daily experimental period.
Day 3; Repeat the operation of Day 2.
Day 4; Repeat the operation of Day 2.
Day 5; Repeat the operation of Day 2.
Days 6 and 7, no drug administered.
(§2) Day 8; Intraocular pressure was measured in both eyes and the conjunctivae were checked for redness/hyperemia.
(§3) Day 15; Intraocular pressure in was measured in both eyes and the conjunctivae were checked for redness/hyperemia.
This is very unusual as most IOP lowering drugs are administered daily in order to continuously lower IOP.

[3] = tested on: Cynomolgus monkeys; experiment: Ocular surface hyperemia assessment (conjunctival congestion) in Cynomolgus monkeys; assay type: in vivo, Cynomolgus monkey; parameters: key to Conjunctival Congestion, hyperemia score: 0: Normal Appearance; 0.5: Very Slight Redness or Dilation of Conjunctival Vessels; 1: More Obvious Redness or Dilation of Conjunctival Vessels; 2: Whole Conjunctiva Exhibiting Pronounced Red Coloration. Visual Clarification of Individual Conjunctival Vessels Difficult.; 3: Whole Conjunctiva Exhibiting Pronounced Red Coloration. Visual Clarification of Individual Iridial Vessels Impossible. Accompany Conjunctival Edema; details: for Conjunctival Congestion, hyperemia score: left eyes, one value per animal
Method: as §1, §2, §3

[4] = tested on: patient; experiment: Periorbital application for ocular pain/inflammation after cataract surgery (patient example); assay type: in vivo, human; details: Example IX: 0.1% w/v solution (formula 5, table 1) once a day for five days, periorbital skin of both eyes
Source text: A person is suffering from ocular/pain inflammation after cataract surgery.

SMILES: O=C(O)c1cn(C2CC2)c2cc(N3CCNCC3)c(F)cc2c1=O [ciprofloxacin]
bacterial conjunctivitis [1]: bacterial infection disappears

Conjunctival Congestion, hyperemia score ([3]; 150407 (12:00) (Day 2, 3 hr post)): 0
Conjunctival Congestion, hyperemia score ([3]; 150407 (14:00) (Day 2, 5 hr post)): 0
Conjunctival Congestion, hyperemia score ([3]; 150408 (12:00) (Day 3, 3 hr post)): 0
Conjunctival Congestion, hyperemia score ([3]; 150408 (14:00) (Day 3, 5 hr post)): 0
Conjunctival Congestion, hyperemia score ([3]; 150409 (12:00) (Day 4, 3 hr post)): 0
Conjunctival Congestion, hyperemia score ([3]; 150409 (14:00) (Day 4, 5 hr post)): 0
Conjunctival Congestion, hyperemia score ([3]; 150410 (12:00) (Day 5, 3 hr post)): 0
Conjunctival Congestion, hyperemia score ([3]; 150410 (14:00) (Day 5, 5 hr post)): 0
Conjunctival Congestion, hyperemia score ([3]; 150413 (8:00) (Day 8)): 0.6 and 0 (4×) and 0.5
Conjunctival Congestion, hyperemia score ([3]; 150420 (8:00) (Day 15)): 0
surface hyperemia (summary of Table IV) ([3]; Cynomolgus monkeys, exception: very slight redness on Day 7 in two monkeys): almost no surface hyperemia
SMILES: CC(C)OC(=O)COc1cccc(NC(=O)c2cc(-c3cccc(F)c3)ccc2F)c1 [3-[(3′-fluoro-4-fluorobiphenyl-3-carbonyl)amino] phenoxyacetic acid isopropyl ester]
reductions in intraocular pressure (Table III and FIG. 2) ([2]; Cynomolgus monkeys, periorbital application, versus normal baseline): Statistically significant reductions
Ocular Pressure (Left Eye), Mean ([2]; Day 2-3 hr post, in Polyethylene glycol 400, dosed Days 2-5, baseline Day 1 17.8 / 18.3): 18.0
Ocular Pressure (Left Eye), Mean ([2]; Day 2-5 hr post, baseline Day 1 17.8 / 18.3): 17.8
Ocular Pressure (Left Eye), Mean ([2]; Day 3-3 hr post): 12.2
Ocular Pressure (Left Eye), Mean ([2]; Day 3-5 hr post): 12.3
Ocular Pressure (Left Eye), Mean ([2]; Day 4-3 hr post): 10.9
Ocular Pressure (Left Eye), Mean ([2]; Day 4-5 hr post): 10.6
Ocular Pressure (Left Eye), Mean ([2]; Day 5-3 hr post): 8.4
Ocular Pressure (Left Eye), Mean ([2]; Day 5-5 hr post): 9.1
Ocular Pressure (Left Eye), Mean ([2]; Day 8-8:00am, no drug after Day 5): 8.5
Ocular Pressure (Left Eye), Mean ([2]; Day 15-8:00, no drug after Day 5): 17.4
IOP lowering (FIG. 2) ([2]; after five doses): long term IOP lowering
duration of IOP lowering ([2]; periorbital skin, single administration and/or after a series of single administrations): 7 to 14 days

SMILES: C[C@]12C=CC(=O)C=C1CC[C@@H]1[C@@H]2[C@@H](O)C[C@@]2(C)[C@H]1CC[C@]2(O)C(=O)CO [prednisolone]
ocular pain and inflammation after cataract surgery [4]: reduces the pain and inflammation
